From patent publication US6667328B2, “Therapeutic agents for diabetes” (Fujimoto Brothers Co., Ltd., priority 2000, dated 2003)

Key:
[1] = test system: high cholesterol-fed hamsters; assay: Lipid lowering effects in high cholesterol-fed hamsters; type: in vivo, Syrian hamsters; conditions: Example 9 (Table 12), 15 mg/kg p.o.
Excerpt: According to the method described in Jpn Pharmacol Ther, 23 (suppl 4), s1047-1053 (1995), male Syrian hamstars were fed for 3 weeks with 1% cholesterol 10% coconut oil (W/W) supplemented diet, and thereby, became to be hypercholesterolemia models. Prior to administration of the compounds, under ether anesthesia, the hamsters were bled from the orbital vein for measurement of serum total cholesterol. They were grouped in the manner by which the respective groups had almost equal serum total cholesterol levels. The normal group of hamsters were fed ordinary diet. Thereafter, the compound 1 and bezafibrate were orally administered once daily at doses of 15 (for only compound 1), 30, 60 and 120 mg/kg for 7 days. Even during the treatment period, cholesterol loading was continued. Four hours later of the final administration, the hamsters were bled by cardiac puncture. The total cholesterol and triglycerides in the serum obtained were measured by the enzymatic method. The results are shown in Table 11 (the negative values mean elevation rates.)
The actions of the compounds of the present invention at a dose of 15 mg/kg were measured in the same method as described in EXAMPLE 8.

[2] = test system: 3T3-L1 preadipocyte cells; assay: Differentiation-inducing actions on adipose cells (oil red-O staining, absorbance at 490 nm); type: cell-based; conditions: 3T3-L1, oil red-O extract absorbance at 490 nm, ratio to control group (1.0)
Procedure: The cloned cell line 3T3-L1 of the preadipocyte cells at the 9-20th generation were used. The cell suspension at a concentration of 2×10^4 cells/ml was added 500 μl/well in a 24 well microplate. Then, the microplates were cultured at 37° C. in the atmosphere of 5% CO2 for 4 days with D-MEM containing 5% inactivated fetal calf serum (hereinafter abbreviated as “FCS D-MEM”). Next, the following procedures were conducted.
(1) To test compound of this invention, 500 μl/well of the following solutions was added to each well:
1) test compound-containing medium (T-MEM) in which the test compound in a stock solution (30 mM in DMSO) was diluted with FCS D-MEM containing 0.1 μM dexamethazone and 100 ng/ml insulin (hereinafter abbreviated as DEX-Ins-FCS D-MEM);
2) FCS-D-MEM; 3) DEX-Ins-FCS D-MEM; 4) 0.1% DMSO-containing DEX-Ins-FCS D-MEM for me control wells.
(2) After above additions were done, the culture plates were incubated at 37° C. in 5% CO2 for 3 days. Then, the same operations as in the procedure (1) were repeated for exchange of the culture medium. The culture plates were incubated at 37° C. in 5% CO2 for further 3 days.
(3) After incubation, the culture medium was removed from the culture plates. Then, the FCS D-MEM was added to the FCS D-MEM-wells, and next the medium prepared for containing 100 ng/ml of insulin with the FCS D-MEM (hereinafter abbreviated as “Ins-FCS D-MEM”) was added at 500 μl/well to the T-MEM wells and DEX-Ins-FCS D-MEM wells. All culture plates were incubated for 4 days.
(4) After incubation, the culture medium was removed. For cell fixation, 500 μl/well of 10% formalin in neutral buffer was added, and left at the room temperature for approximately 20 minutes or longer. Then the formalin solution was removed, and 60% 2-propanol solution was added at 500 μl/well, then quickly removed, and the oil red-O staining solution was added at 250 μl/well. The culture plates were sealed with plate seals, and left at room temperature for 30 minutes or longer. After incubation, the staining solution was removed, and the 60% 2-propanol solution was added at 500 μl/well, and quickly removed. The cells were rinsed with water a few times, and then water drops were flipped away. A cell-lysis buffer was added at 500 μl/well, and the culture plates were sealed with plate seals, and left at 37° C. for 1 hour to extract the pigments. Next, 300 μl/well of the extract solution was transferred at a 96 well micro-plates, and then the absorbance of each extract was measured at wavelength of 490 nm.
The absorbance ratios of the respective test compounds-groups to the control group, the mean absorbance of which was designated as 1.0, are shown in Table 8. Based on the judgement that the absorbance higher than that of the control group indicates a greater differentiation-inducing activity of the test compound, the compounds of the present invention were determined to have the activity to induce differentiation of preadipocytes to adipocytes, resulting in elevating insulin sensitivity of organs. Thereby, this activity would confer the efficacy in the therapy of diabetes.

[3] = test system: fructose-induced hyperlipidemic rats; assay: Hypotriglyceridemic activity in fructose-induced hyperlipidemic rats; type: in vivo, Sprague Dawley rats; conditions: fructose-loaded rats, 30 mg/kg p.o. once daily for 7 days; for inhibition in vivo at 30 mg/kg: Rattus norvegicus, po, 168 h, read-out: Reduction in Serum Triglyceride (%)
Procedure: The compounds were tested for a hypotriglyceridemic activity in fructose-induced hyperlipidemic rats in accordance with the method described in Nippon Yakurigaku Zasshi, 92 (3), 175-180 (1988). Sprague Dawley rats were grouped by the ranking method of body weight. Then, instead of drinking water, rats were given 75% fructose aqueous ad libitum for one week, thereby, resulting in the state of hypertriglyceridemia. The compounds of the present invention, suspended in 3% Arabic gum aqueous solution, and a dose of 30 mg/kg was orally administrated once daily for 7 days during the fructose-loading period. The control group of rats were given 3% Arabic gum aqueous solution only. Two hours later of the final administration, the rats were bled from the abdominal aorta to measure serum triglycerides and total cholesterol. The reduction rate (%) of each measurement compared to the control groups was calculated according to the equation indicated in EXAMPLE 4.

db/db mice = assay: Antihyperlipidemic activities in genetically diabetic mice; type: in vivo; conditions: 150 mg/kg p.o. once daily for 14 days, serum
Procedure: (§1) Genetically diabetic db/db mice (C57BL/ksJ Jcl-dbm db/db mice) older than 8 weeks were grouped depend on their blood sugar levels of the prior measurements in order to divide groups with almost equal mean value of the sugar level. The respective groups of db/db mice were designates as the following groups: the group given the compound of the present invention, the group of troglitazone, and the group given no administrating group. For the compounds of the present invention, two doses: 75 mg/kg and 150 mg/kg, and for troglitazone, a dose of 150 mg/kg were individually given to the mice as a forced oral administration once daily for 14 days successively. These agents were suspended in 3.0% Arabic gum solution for administration. To the control group, only the same volume of 3.0% Arabic gum solution was administered. On the next day of the final administration, each mouse was […] for sampling. The blood samples were subject to serum separation. The glucose level in the serum of each group was measured. Then, a reduction rate in a glucose level (%) compared to the control group was calculated with mean value of each group according to the equation below. […] [formula]
In the same way as described in EXAMPLE 4, db/db mice were grouped in the manner by which the respective groups had almost equivalent mean blood sugar levels. The compounds 1, 3, 13, 21 and 22 of the present invention, suspended in 3.0% Arabic gum solution, were orally administrated, with a dose of 150 mg/kg, once daily for successive 14 days. The control group of mice were given the vehicle solution only. On the next day of the final administration, each mouse was bled for sampling. The blood was subjected for serum separation, and then subjected to measurements of β-lipoproteins, free fatty acids, and triglycerides. The reduction rate (%) of each measurement compared to the control group was calculated by the equation indicated in EXAMPLE 4. […] (Table 9).

[4] = test system: Genetically diabetic db/db mice (C57BL/ksJ Jcl-dbm db/db mice); assay: Blood sugar lowering actions in genetically diabetic mice; type: in vivo; conditions: serum glucose vs control group
Procedure: as §1

Row | Compound | Absorbance Ratio [2] | inhibition in vivo at 30 mg/kg [3] | also measured
1 | CC(=Cc1ccccc1)c1ccc(/C=C2/SC(=NC#N)NC2=O)cc1 [Compound 2, 2-(N-Cyanoimino)-5-[(E)-4-(α-methylstyryl)benzylidene]thiazolidin-4-one] | 1.57 | 67% | Reduction Rate (%) Total cholesterol [1]: 27%; Reduction Rate (%) Triglyceride [1]: 57%
2 | N#CN=C1NC(=O)C(=Cc2ccc(OCc3ccccc3)cc2)S1 [Compound 13] | 2.51 | – | Reduction in Serum Triglyceride (%) [3]: 55%; Reduction Rate (%) Free Fatty Acids (db/db mice): 38%; Reduction Rate (%) Triglycerides (db/db mice): 70%; Reduction Rate (%) β-lipoproteins (db/db mice): 65%
3 | N#CN=C1NC(=O)C(=Cc2ccc(OCCCc3ccccc3)cc2)S1 [Compound 5, 2-(N-Cyanoimino)-5-[4-(3-phenylpropoxy)benzylidene]thiazolidin-4-one] | 1.87 | – | –
4 | CCC(Oc1ccc(C)cc1)c1ccccc1 (centres unmarked) [Compound 32] | – | 47% | –
5 | N#CN=C1NC(=O)C(=Cc2ccc(OCc3ccc4c(c3)OCO4)cc2)S1 [Compound 17, 2-(N-Cyanoimino)-5-[4-(1,3-benzodioxole-5-ylmethoxy)benzylidene]thiazolidin-4-one] | – | 37% | –
6 | N#CN=C1NC(=O)/C(=C\c2ccc(C=Cc3ccccc3F)cc2)S1 [Compound 8, 2-(N-Cyanoimino)-5-[(E)-4-(2-fluorostyryl)benzylidene]thiazolidin-4-one] | 1.95 | 47% | –
7 | Cc1c(C)c2c(c(C)c1O)CCC(C)(COc1ccc(CC3SC(=O)NC3=O)cc1)O2 (centres unmarked) [troglitazone, reference compound] | – | – | Reduction in Blood Glucose (%) ([4]; 150 mg/kg oral once daily for 14 days): 18%
8 | N#CN=C1NC(=O)C(=Cc2cccc(OCCc3ccccc3)c2)S1 [Compound 12, 2-(N-Cyanoimino)-5-(3-phenethyloxybenzylidene)thiazolidin-4-one] | 1.74 | 59% | –
9 | CC(=Cc1ccc(/C=C2/SC(=NC#N)NC2=O)cc1)c1ccccc1 [Compound 4, 2-(N-Cyanoimino)-5-[(E)-4-(β-methylstyryl)benzylidene]thiazolidin-4-one] | 2.62 | 42% | –
10 | Cc1ccc(C)c(Oc2ccc(C=C3SC(=NC#N)NC3=O)cc2)c1 [Compound 9, 2-(N-Cyanoimino)-5-[4-(2,5-dimethylphenoxy)benzylidene]thiazolidin-4-one] | – | 49% | –
11 | N#CN=C1NC(=O)C(=Cc2cccc(Oc3ccccc3)c2)S1 [Compound 16, 2-(N-Cyanoimino)-5-(3-phenoxybenzylidene)thiazolidin-4-one] | 1.18 | 54% | –
12 | N#CN=C1NC(=O)C(=Cc2ccc(-c3cc4cc(Cl)ccc4o3)cc2)S1 [Compound 14, 2-(N-Cyanoimino)-5-[4-(5-chlorobenzofuran-2-yl)benzylidene]thiazolidin-4-one] | – | 36% | –
13 | N#CN=C1NC(=O)C(=Cc2ccc(OCc3ccc(Cl)cc3)cc2)S1 [Compound 19, 2-(N-Cyanoimino)-5-[4-(4-chlorobenzyloxy)benzylidene]thiazolidin-4-one] | 1.51 | 38% | –
14 | N#CN=C1NC(=O)/C(=C\c2ccc(C=Cc3ccccc3)cc2)S1.[Na] [Compound 63, 2-(N-Cyanoimino)-5-[(E)-4-stylylbenzylidene]thiazolidin-4-one Sodium Salt] | – | – | Reduction in Blood Glucose (%) ([4]; 75 mg/kg oral once daily for 14 days): 32%
15 | N#CN=C1NC(=O)C(=Cc2ccc(Sc3ccccc3)cc2)S1 [Compound 7, 2-(N-Cyanoimino)-5-(4-phenylthiobenzylidene)thiazolidin-4-one] | 1.93 | 60% | –
16 | N#CN=C1NC(=O)C(=Cc2ccc(Oc3ccc(Cl)cc3)cc2)S1 [Compound 6, 2-(N-Cyanoimino)-5-[4-(4-chlorophenoxy)benzylidene]thiazolidine-4-one] | – | 84% | –
17 | N#CN=C1NC(=O)C(=Cc2ccccc2OCCc2ccccc2)S1 [Compound 21, 2-(N-Cyanoimino)-5-(2-phenethyloxybenzylidene)thiazolidin-4-one] | 2.02 | 48% | Reduction Rate (%) Free Fatty Acids (db/db mice): 25%; Reduction Rate (%) Triglycerides (db/db mice): 41%; Reduction Rate (%) β-lipoproteins (db/db mice): 38%
18 | CC(COc1ccc(C=C2SC(=NC#N)NC2=O)cc1)c1ccccc1 (centres unmarked) [Compound 11, 2-(N-Cyanoimino)-5-[4-(2-phenylpropoxy)benzylidene]thiazolidin-4-one] | – | 62% | –
